Assay results reported in PMC10272271, “MAM-2201 acute administration impairs motor, sensorimotor, prepulse inhibition, and memory functions in mice: a comparison with its analogue AM-2201” (Psychopharmacology, 2023).

Key:
Type in all cases: in vivo, mouse
[1] = system: CD-1 male mice; assay: Acoustic startle and pre-pulse inhibition (PPI) test; conditions: prepulse 85 dB, 120 min
[2] = system: CD-1 male mice; assay: Visual placing response test
Description: (§1) For the overall study 234 mice were used. In sensorimotor (visual object, visual placing, acoustic, and overall tactile responses) tests for MAM-2201, experiments for each treatment dose (vehicle or 5 different MAM-2201 doses, 0.01, 0.1, 1, 3, and 6 mg/kg) used 8 mice (total mice used: 48) and for MAM-2201 with AM-251 pretreatment, experiments for each dose regimen (vehicle + AM-251 or MAM-2201 + AM-251, 6 mg/kg) used 16 mice. In the analysis of spontaneous locomotion (open field test) for MAM-2201, experiments for each treatment regimen (vehicle or 4 different MAM-2201 doses, 0.01, 0.1, 1, and 6 mg/kg) used 10 mice (total mice used: 50). In the PPI test for MAM-2201, experiments for each treatment (vehicle or 3 different MAM-2201 doses, 0.01, 0.1, and 1 mg/kg) used 10 mice (total mice used: 40), while for MAM-2201 experiments in the Novel Object Recognition (NOR) test for each treatment regimen (vehicle or 3 different MAM-2201 and vehicle or 3 different AM-2201 doses, 0.01, 0.1, and 1 mg/kg) used 10 mice (total mice used: 80). […] The voluntary and involuntary motor responses of the animal to different visual, acoustic, and tactile stimuli were evaluated according to the procedure described in our previous studies (Ossato et al. [2015]; Bilel et al. [2020]). To reduce the number of animals used, mice were evaluated in functional observational tests carried out in a consecutive manner according to the following time scheme: observation of visual object responses (frontal and lateral view), acoustic response, tactile response (vibrissae, corneal and pinnae reflexes), and visual placing response. Sensorimotor tests were measured at 10, 30, 60, 120, 180, 240, and 300 min after injections for the evaluation of the visual object, acoustic and the tactile response, and at 15, 45, 75, 135, 195, 255, and 315 min after injections for the evaluation of visual placing response. […] Sensory gating was evaluated by analysis of the pre-pulse inhibition (PPI) of the acoustic startle reflex as previously described (Bilel et al. [2020]). […]

[3] = system: CD-1 male mice; assay: Visual object response test
Description: For the overall study 234 mice were used. In sensorimotor (visual object, visual placing, acoustic, and overall tactile responses) tests for MAM-2201, experiments for each treatment dose (vehicle or 5 different MAM-2201 doses, 0.01, 0.1, 1, 3, and 6 mg/kg) used 8 mice (total mice used: 48) and for MAM-2201 with AM-251 pretreatment, experiments for each dose regimen (vehicle + AM-251 or MAM-2201 + AM-251, 6 mg/kg) used 16 mice. In the analysis of spontaneous locomotion (open field test) for MAM-2201, experiments for each treatment regimen (vehicle or 4 different MAM-2201 doses, 0.01, 0.1, 1, and 6 mg/kg) used 10 mice (total mice used: 50). In the PPI test for MAM-2201, experiments for each treatment (vehicle or 3 different MAM-2201 doses, 0.01, 0.1, and 1 mg/kg) used 10 mice (total mice used: 40), while for MAM-2201 experiments in the Novel Object Recognition (NOR) test for each treatment regimen (vehicle or 3 different MAM-2201 and vehicle or 3 different AM-2201 doses, 0.01, 0.1, and 1 mg/kg) used 10 mice (total mice used: 80). In the present study the effect of MAM-2201 on sensorimotor responses was investigated using a battery of behavioral tests widely used in studies of “safety-pharmacology,” that we routinely adopted in our laboratory, for the preclinical characterization of new molecules in rodents (Ossato et al. [2015]; Vigolo et al. [2015]; Bilel et al. [2020]). The voluntary and involuntary motor responses of the animal to different visual, acoustic, and tactile stimuli were evaluated according to the procedure described in our previous studies (Ossato et al. [2015]; Bilel et al. [2020]). To reduce the number of animals used, mice were evaluated in functional observational tests carried out in a consecutive manner according to the following time scheme: observation of visual object responses (frontal and lateral view), acoustic response, tactile response (vibrissae, corneal and pinnae reflexes), and visual placing response. Sensorimotor tests were measured at 10, 30, 60, 120, 180, 240, and 300 min after injections for the evaluation of the visual object, acoustic and the tactile response, and at 15, 45, 75, 135, 195, 255, and 315 min after injections for the evaluation of visual placing response. Behavioral tests were conducted in a thermostated (temperature: 20–22 °C, humidity: 45–55%) and light (150 lx) controlled room with a background noise of 40 ± 4 dB. The apparatus for the visual object, acoustic and tactile sensorimotor tests consisted of an experimental chamber (350 × 350 × 350 mm) with black methacrylate walls and a transparent front door. During the week before the experiment, each mouse was placed in the box and handled (once a day) on every other day, i.e., 3 times, to get used to both the environment and the experimenter. To avoid olfactory cues, cages were carefully cleaned with a dilute (5%) ethanol solution and rinsed with water. All experiments were performed between 8:30 AM and 2:00 PM and conducted by trained observers working in pairs who were blinded to the treatment being tested (Ossato et al. [2015]). The behavior of mice was videotaped by a camera (B/W USB Camera day & night with varifocal lens; Ugo Basile, Italy) placed at the top or on one side of the box and analyzed off-line by a different trained operator. Spontaneous locomotion studies were conducted in a separate set of animals through ANYMAZE test. Sensory gating was evaluated by analysis of the pre-pulse inhibition (PPI) of the acoustic startle reflex as previously described (Bilel et al. [2020]).
Visual object response test was used to evaluate the ability of the mouse to see an object approaching from the front (frontal view) or the side (lateral view) that typically induces the animal to shift or turn the head, bring the forelimbs in the position of “defense” or retreat from it. For the frontal visual response, a white horizontal bar was moved frontally to the mouse head and the maneuver was repeated 3 times. […]

[4] = system: CD-1 male mice; assay: Overall tactile response (vibrissae, corneal, pinnae reflexes)
Description: For the overall study 234 mice were used. In sensorimotor (visual object, visual placing, acoustic, and overall tactile responses) tests for MAM-2201, experiments for each treatment dose (vehicle or 5 different MAM-2201 doses, 0.01, 0.1, 1, 3, and 6 mg/kg) used 8 mice (total mice used: 48) and for MAM-2201 with AM-251 pretreatment, experiments for each dose regimen (vehicle + AM-251 or MAM-2201 + AM-251, 6 mg/kg) used 16 mice. In the analysis of spontaneous locomotion (open field test) for MAM-2201, experiments for each treatment regimen (vehicle or 4 different MAM-2201 doses, 0.01, 0.1, 1, and 6 mg/kg) used 10 mice (total mice used: 50). In the PPI test for MAM-2201, experiments for each treatment (vehicle or 3 different MAM-2201 doses, 0.01, 0.1, and 1 mg/kg) used 10 mice (total mice used: 40), while for MAM-2201 experiments in the Novel Object Recognition (NOR) test for each treatment regimen (vehicle or 3 different MAM-2201 and vehicle or 3 different AM-2201 doses, 0.01, 0.1, and 1 mg/kg) used 10 mice (total mice used: 80). In the present study the effect of MAM-2201 on sensorimotor responses was investigated using a battery of behavioral tests widely used in studies of “safety-pharmacology,” that we routinely adopted in our laboratory, for the preclinical characterization of new molecules in rodents (Ossato et al. [2015]; Vigolo et al. [2015]; Bilel et al. [2020]). The voluntary and involuntary motor responses of the animal to different visual, acoustic, and tactile stimuli were evaluated according to the procedure described in our previous studies (Ossato et al. [2015]; Bilel et al. [2020]). To reduce the number of animals used, mice were evaluated in functional observational tests carried out in a consecutive manner according to the following time scheme: observation of visual object responses (frontal and lateral view), acoustic response, tactile response (vibrissae, corneal and pinnae reflexes), and visual placing response. Sensorimotor tests were measured at 10, 30, 60, 120, 180, 240, and 300 min after injections for the evaluation of the visual object, acoustic and the tactile response, and at 15, 45, 75, 135, 195, 255, and 315 min after injections for the evaluation of visual placing response. Behavioral tests were conducted in a thermostated (temperature: 20–22 °C, humidity: 45–55%) and light (150 lx) controlled room with a background noise of 40 ± 4 dB. […] The behavior of mice was videotaped by a camera (B/W USB Camera day & night with varifocal lens; Ugo Basile, Italy) placed at the top or on one side of the box and analyzed off-line by a different trained operator. […] Sensory gating was evaluated by analysis of the pre-pulse inhibition (PPI) of the acoustic startle reflex as previously described (Bilel et al. [2020]). […]

[5] = system: CD-1 male mice; assay: Spontaneous locomotor activity (open field, ANY-maze)
Description: as §1, with “50).” for “50). In the PPI test for MAM-2201, experiments for each treatment (vehicle or 3 different MAM-2201 doses, 0.01, 0.1, and 1 mg/kg) used 10 mice (total mice used: 40), while for MAM-2201 experiments in the Novel Object Recognition (NOR) test for each treatment regimen (vehicle or 3 different MAM-2201 and vehicle or 3 different AM-2201 doses, 0.01, 0.1, and 1 mg/kg) used 10 mice (total mice used: 80).”, “response.” for “response. Sensorimotor tests were measured at 10, 30, 60, 120, 180, 240, and 300 min after injections for the evaluation of the visual object, acoustic and the tactile response, and at 15, 45, 75, 135, 195, 255, and 315 min after injections for the evaluation of visual placing response.”

[6] = Mus musculus, ip, mice, value ± SEM

Cc1ccc(C(=O)c2cn(CCCCCF)c3ccccc23)c2ccccc12 [MAM-2201, 1-[(5-fluoropentyl)-1H-indol-3-yl](4-methyl-1-naphthalenyl) methanone]
decrease of PPI ([1]; 0.1 mg/kg i.p.): ~ 19%
decrease of PPI ([1]; 1 mg/kg i.p.): ~ 37%
effect on visual placing response ([2]; 0.01-6 mg/kg i.p., persisted up to 5 h at all doses): drastic impairment
ED50 [2, 6]: 0.291 ± 0.025 mg/kg
effect on visual object response ([3]; 0.01 mg/kg i.p., at 30 min after injection): transiently reduced
effect on visual object response ([3]; 0.1 mg/kg i.p.): long-lasting inhibition
effect on visual object response ([3]; 1 mg/kg i.p., at 30 min): total inhibition
effect on visual object response ([3]; 3 and 6 mg/kg i.p., until end of test (5 h)): deep and prolonged impairment
ED50 ([3]; Mus musculus, ip, mice, value ± SEM, dose for 50% of overall mean effect): 1.14 ± 0.089 mg/kg
effect on overall tactile response ([4]; 1 mg/kg i.p., first hour after administration): slightly reduced
effect on overall tactile response ([4]; 3 and 6 mg/kg i.p.): deeper and more persistent effect
ED50 [4, 6]: 1.861 ± 0.011 mg/kg
effect on immobility time ([5]; 1 and 6 mg/kg i.p., first hour): increased
time during which motor capacity was affected ([5]; open field test): ≤ 60 min
